The IC50 is the concentration at which inhibition is half-maximal.

Where a name gives a salt, the structure may show the parent alone.

Six molecules from patent publication EP0552765B1, “Benzimidazoles, pharmaceutical compositions containing them and process for their preparation” (Dr. Karl Thomae GmbH, priority 1992, dated 1993) can be followed below.

The test concerns the target Angiotensin II-Rezeptor. Kind of test: Angiotensin II receptor binding (displacement of [125I]-Angiotensin II from rat lung homogenate). Also noted: species or system Ratte. The note with it: Rattenlunge homogenate; 50 pM [125I]-Angiotensin II; 60 Min. at 37°C; IC50 from dose-response curve. Here is the method: Methodenbeschreibung Angiotensin II-Rezeptorbindung
Das Gewebe (Rattenlunge) wird in Tris-Puffer (50 mMol Tris, 150 mMol NaCl, 5 mMol EDTA, pH 7.40) homogenisiert und zweimal je 20 Min. bei 20.000 x g zentrifugiert. Das endgültige Pellet wird in Inkubations-Puffer (50 mMol Tris, 5 mMol MgCl2, 0,2 % BSA, pH 7,40) 1:75, bezogen auf das Feuchtgewicht des Gewebes, resuspendiert. Je 0,1 ml Homogenat wird für 60 Min. bei 37°C mit 50 pM [125^I]-Angiotensin II (NEN, Dreieich, FRG) und steigenden Konzentrationen der Testsubstanz in einem Gesamtvolumen von 0,25 ml inkubiert. Die Inkubation wird durch rasche Filtration durch Glasfiber-Filtermatten beendet. Die Filter werden je 4 ml eiskaltem Puffer (25 mMol Tris, 2.5 mMol MgCl2, 0,1 % BSA, pH 7,40) gewaschen. Die gebundene Radioaktivität wird in einem Gamma-Counter ermittelt. Aus der Dosis-Wirkungskurve wird der entsprechende IC50-Wert ermittelt.
For `CCCc1nc2c(C)cc(-c3cn(C)cn3)cc2n1Cc1ccc(-c2ccccc2C(=O)O)cc1` [Substanz A, 4'-[(2-n-Propyl-4-methyl-6-(1-methyl-imidazol-4-yl)-benzimidazol-1-yl)-methyl]-biphenyl-2-carbonsäure, reference compound], the 50% inhibitory concentration (IC50) was 1.2 nM. Molecule `CCCc1nc2c(C)cc(-c3coc(C)n3)cc2n1Cc1ccc(-c2ccccc2C(=O)O)cc1` [Substanz C, 4'-[(2-n-Propyl-4-methyl-6-(2-methyl-oxazol-4-yl)-benzimidazol-1-yl)-methyl]-biphenyl-2-carbonsäure] came in with an IC50 of 40 nM. In the case of `CCOc1nc2ccc(-c3cn(C(C)C)cn3)cc2n1Cc1ccc(-c2ccccc2C(=O)O)cc1` [Substanz D, 4'-[(2-Ethoxy-6-(1-isopropyl-imidazol-4-yl)-benzimidazol-1-yl)-methyl]-biphenyl-2-carbonsäure] it was 10 nM; in that of `CCCc1nc2c(C)cc(-c3cn(C4CCCCCC4)cn3)cc2n1Cc1ccc(-c2ccccc2C(=O)O)cc1` [Substanz E, 4'-[(2-n-Propyl-4-methyl-6-(1-cycloheptyl-imidazol-4-yl)-benzimidazol-1-yl)-methyl]-biphenyl-2-carbonsäure], 15 nM; in that of `CCCc1nc2c(C)cc(-c3cn(CC(N)=O)cn3)cc2n1Cc1ccc(-c2ccccc2C(=O)O)cc1` [Substanz F, 4'-[(2-n-Propyl-4-methyl-6-(1-aminocarbonylmethyl-imidazol-4-yl)-benzimidazol-1-yl)-methyl]-biphenyl-2-carbonsäure], 3.4 nM.

As to `CCCc1nc2c(C)cc(-c3cn(CCCN(C)C)cn3)cc2n1Cc1ccc(-c2ccccc2C(=O)O)cc1` [Substanz G, 4'-[(2-n-Propyl-4-methyl-6-(1-(3-dimethylaminopropyl)-imidazol-4-yl)-benzimidazol-1-yl)-methyl]-biphenyl-2-carbonsäure-dihydrochlorid-pentahydrat], the IC50 turned out to be 1.3 nM.
